# Experimental data: ChEMBL document CHEMBL4422624, “A novel class of anthraquinone-based HDAC6 inhibitors” (Eur J Med Chem, 2019)
# The source made the active and inactive calls. The calls are words filed in the database; no cut-off is given here.
# Key:
# [1] = target: Histone deacetylase 4 (Homo sapiens, UniProt P56524); assay: Inhibition of human recombinant HDAC4 using fluorogenic HDAC substrate class 2A by fluorescence assay
# [2] = target: T1, Polyamine deacetylase HDAC10 (Homo sapiens, UniProt Q969S8); assay: Inhibition of HDAC10 (unknown origin) by fluorescence assay
# T1 sequence (Q969S8 whole entry): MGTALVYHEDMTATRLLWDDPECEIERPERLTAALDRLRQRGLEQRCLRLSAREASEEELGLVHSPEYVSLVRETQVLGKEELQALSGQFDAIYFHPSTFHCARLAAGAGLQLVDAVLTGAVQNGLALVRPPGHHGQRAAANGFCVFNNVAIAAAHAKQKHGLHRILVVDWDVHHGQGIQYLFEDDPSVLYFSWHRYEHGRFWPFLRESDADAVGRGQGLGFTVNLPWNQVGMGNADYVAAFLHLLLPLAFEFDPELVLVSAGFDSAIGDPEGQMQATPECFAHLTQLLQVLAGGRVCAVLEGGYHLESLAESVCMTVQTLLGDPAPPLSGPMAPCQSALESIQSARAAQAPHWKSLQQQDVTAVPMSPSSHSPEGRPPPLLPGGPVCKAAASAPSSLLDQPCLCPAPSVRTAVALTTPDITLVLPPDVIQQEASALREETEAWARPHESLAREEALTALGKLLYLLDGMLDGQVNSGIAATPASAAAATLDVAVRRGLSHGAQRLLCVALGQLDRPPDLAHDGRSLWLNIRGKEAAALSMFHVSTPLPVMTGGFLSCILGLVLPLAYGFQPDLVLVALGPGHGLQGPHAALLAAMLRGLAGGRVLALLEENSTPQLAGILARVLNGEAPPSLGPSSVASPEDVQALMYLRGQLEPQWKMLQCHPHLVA
# [3] = target: Histone deacetylase 9 (Homo sapiens, UniProt Q9UKV0); assay: Inhibition of human recombinant HDAC9 using fluorogenic HDAC substrate class 2A by fluorescence assay
# Histone deacetylase 9, sequence (Q9UKV0 whole entry): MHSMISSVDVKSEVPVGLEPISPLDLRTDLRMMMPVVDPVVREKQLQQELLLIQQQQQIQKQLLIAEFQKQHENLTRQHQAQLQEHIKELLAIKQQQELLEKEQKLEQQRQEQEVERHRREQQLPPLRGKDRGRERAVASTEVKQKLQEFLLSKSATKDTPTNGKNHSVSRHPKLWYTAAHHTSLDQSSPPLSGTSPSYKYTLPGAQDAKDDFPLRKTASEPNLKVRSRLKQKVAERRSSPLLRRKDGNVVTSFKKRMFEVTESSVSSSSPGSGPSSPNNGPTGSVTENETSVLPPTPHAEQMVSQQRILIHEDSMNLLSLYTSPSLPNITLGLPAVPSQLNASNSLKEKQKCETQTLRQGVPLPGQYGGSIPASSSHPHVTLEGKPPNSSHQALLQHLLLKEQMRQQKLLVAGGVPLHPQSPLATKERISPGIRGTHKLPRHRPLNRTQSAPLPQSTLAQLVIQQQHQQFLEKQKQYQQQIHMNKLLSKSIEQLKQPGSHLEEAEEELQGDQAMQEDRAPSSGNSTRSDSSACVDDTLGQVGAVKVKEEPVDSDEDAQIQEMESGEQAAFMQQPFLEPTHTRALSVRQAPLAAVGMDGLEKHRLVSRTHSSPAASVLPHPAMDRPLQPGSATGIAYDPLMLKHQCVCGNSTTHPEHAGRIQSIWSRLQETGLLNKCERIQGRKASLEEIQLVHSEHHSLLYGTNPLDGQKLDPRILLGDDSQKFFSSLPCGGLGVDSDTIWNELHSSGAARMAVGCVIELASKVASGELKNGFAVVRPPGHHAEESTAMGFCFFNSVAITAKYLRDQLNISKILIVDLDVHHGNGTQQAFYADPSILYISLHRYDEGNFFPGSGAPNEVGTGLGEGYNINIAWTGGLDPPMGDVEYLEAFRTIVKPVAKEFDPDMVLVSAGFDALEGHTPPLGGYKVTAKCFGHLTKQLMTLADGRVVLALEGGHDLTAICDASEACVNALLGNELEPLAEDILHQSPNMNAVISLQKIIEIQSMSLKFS
# [4] = target: T2, Histone deacetylase 8 (Homo sapiens, UniProt Q9BY41); assay: Inhibition of human recombinant HDAC8 using fluorogenic HDAC substrate class 2A by fluorescence assay
# T2 sequence (Q9BY41 whole entry): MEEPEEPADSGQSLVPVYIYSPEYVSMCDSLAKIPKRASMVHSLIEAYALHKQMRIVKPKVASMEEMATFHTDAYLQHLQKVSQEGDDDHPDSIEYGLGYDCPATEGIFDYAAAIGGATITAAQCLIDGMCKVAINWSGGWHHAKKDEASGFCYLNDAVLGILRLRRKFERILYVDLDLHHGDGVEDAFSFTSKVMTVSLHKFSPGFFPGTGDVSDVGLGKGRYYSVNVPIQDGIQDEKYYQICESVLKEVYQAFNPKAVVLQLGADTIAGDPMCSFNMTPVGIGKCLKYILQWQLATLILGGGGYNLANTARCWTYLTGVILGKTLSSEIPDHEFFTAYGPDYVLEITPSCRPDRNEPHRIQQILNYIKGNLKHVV
# [5] = target: T3, Histone deacetylase 1 (Homo sapiens, UniProt Q13547); assay: Inhibition of human recombinant HDAC1 using fluorogenic HDAC substrate-3 by fluorescence assay
# T3 sequence (Q13547 whole entry): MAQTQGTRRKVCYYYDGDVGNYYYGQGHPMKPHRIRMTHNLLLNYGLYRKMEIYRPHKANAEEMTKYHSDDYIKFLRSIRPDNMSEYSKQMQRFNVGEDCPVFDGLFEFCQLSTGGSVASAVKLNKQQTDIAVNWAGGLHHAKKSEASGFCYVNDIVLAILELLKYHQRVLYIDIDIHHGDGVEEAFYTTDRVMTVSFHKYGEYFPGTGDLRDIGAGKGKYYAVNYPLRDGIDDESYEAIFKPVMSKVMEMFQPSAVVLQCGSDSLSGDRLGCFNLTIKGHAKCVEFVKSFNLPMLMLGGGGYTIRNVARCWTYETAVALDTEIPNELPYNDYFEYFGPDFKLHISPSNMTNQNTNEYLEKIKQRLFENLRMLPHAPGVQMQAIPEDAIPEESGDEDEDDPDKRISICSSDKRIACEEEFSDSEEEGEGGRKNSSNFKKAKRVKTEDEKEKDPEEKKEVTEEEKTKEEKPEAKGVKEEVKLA
# [6] = target: Histone deacetylase 2 (Homo sapiens, UniProt Q92769); assay: Inhibition of HDAC2 (unknown origin) using fluorogenic HDAC substrate-3 by fluorescence assay
# Histone deacetylase 2, sequence (Q92769 whole entry): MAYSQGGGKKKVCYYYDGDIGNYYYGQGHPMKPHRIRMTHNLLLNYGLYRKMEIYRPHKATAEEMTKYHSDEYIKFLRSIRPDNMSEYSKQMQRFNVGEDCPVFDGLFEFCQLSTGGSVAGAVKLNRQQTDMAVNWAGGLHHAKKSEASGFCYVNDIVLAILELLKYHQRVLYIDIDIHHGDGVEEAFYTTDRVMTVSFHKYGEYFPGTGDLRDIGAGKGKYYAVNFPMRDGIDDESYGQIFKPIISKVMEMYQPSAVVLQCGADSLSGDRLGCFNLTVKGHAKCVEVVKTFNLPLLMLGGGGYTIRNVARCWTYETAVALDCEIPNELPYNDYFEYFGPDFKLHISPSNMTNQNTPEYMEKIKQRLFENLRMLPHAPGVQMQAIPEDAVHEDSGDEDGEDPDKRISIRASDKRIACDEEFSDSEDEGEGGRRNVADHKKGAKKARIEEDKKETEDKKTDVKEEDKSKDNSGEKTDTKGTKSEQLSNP
# [7] = tested on: SH-SY5Y; assay: Cytotoxicity against human SH-SY5Y cells assessed as reduction in cell viability after 3 days by MTS assay; format: functional; conditions: for GI50: 72 h
# [8] = target: Histone deacetylase 5 (Homo sapiens, UniProt Q9UQL6); assay: Inhibition of human recombinant HDAC5 using fluorogenic HDAC substrate class 2A by fluorescence assay
# Histone deacetylase 5, sequence (Q9UQL6 whole entry): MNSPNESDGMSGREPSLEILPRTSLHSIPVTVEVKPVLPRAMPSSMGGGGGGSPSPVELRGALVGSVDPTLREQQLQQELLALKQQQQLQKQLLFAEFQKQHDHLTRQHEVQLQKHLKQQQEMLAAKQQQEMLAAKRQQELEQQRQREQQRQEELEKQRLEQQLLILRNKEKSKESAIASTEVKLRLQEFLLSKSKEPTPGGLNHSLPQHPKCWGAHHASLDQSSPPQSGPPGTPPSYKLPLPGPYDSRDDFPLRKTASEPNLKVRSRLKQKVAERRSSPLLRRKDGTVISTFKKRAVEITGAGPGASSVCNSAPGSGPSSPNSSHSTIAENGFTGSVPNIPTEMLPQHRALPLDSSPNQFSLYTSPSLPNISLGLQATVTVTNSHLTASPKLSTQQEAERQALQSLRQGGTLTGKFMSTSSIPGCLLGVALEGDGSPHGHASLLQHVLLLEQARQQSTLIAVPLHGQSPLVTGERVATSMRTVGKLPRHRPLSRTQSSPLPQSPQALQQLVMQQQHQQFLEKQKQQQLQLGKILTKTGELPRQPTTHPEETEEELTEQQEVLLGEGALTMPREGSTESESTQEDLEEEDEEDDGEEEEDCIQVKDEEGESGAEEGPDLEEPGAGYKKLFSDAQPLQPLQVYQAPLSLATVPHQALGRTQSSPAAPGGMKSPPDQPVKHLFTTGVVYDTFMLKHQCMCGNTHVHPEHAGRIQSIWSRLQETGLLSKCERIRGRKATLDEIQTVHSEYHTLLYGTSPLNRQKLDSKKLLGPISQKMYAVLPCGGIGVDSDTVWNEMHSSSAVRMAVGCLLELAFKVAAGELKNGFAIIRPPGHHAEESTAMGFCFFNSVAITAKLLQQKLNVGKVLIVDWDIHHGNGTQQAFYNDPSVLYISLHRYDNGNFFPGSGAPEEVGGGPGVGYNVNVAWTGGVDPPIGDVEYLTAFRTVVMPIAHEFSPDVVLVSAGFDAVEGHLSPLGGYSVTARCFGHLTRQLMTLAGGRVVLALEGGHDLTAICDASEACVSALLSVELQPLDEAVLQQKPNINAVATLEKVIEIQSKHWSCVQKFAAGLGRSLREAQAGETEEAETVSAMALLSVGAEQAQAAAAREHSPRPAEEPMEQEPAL
# [9] = target: T4, Histone deacetylase 11 (Homo sapiens, UniProt Q96DB2); assay: Inhibition of human recombinant HDAC11 using fluorogenic HDAC substrate class 2A by fluorescence assay
# T4 sequence (Q96DB2 whole entry): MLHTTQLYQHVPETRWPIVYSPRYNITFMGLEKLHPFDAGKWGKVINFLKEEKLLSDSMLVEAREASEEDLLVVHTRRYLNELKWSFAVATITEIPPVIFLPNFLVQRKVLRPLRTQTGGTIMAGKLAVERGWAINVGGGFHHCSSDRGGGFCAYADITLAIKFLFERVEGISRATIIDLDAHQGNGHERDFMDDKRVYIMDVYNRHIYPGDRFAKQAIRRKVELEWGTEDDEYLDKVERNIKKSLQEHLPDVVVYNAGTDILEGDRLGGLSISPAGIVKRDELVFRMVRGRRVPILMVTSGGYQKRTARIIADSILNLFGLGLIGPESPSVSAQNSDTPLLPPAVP
# [10] = target: T5, Histone deacetylase 7 (Homo sapiens, UniProt Q8WUI4); assay: Inhibition of human recombinant HDAC7 using fluorogenic HDAC substrate class 2A by fluorescence assay
# T5 sequence (Q8WUI4 whole entry): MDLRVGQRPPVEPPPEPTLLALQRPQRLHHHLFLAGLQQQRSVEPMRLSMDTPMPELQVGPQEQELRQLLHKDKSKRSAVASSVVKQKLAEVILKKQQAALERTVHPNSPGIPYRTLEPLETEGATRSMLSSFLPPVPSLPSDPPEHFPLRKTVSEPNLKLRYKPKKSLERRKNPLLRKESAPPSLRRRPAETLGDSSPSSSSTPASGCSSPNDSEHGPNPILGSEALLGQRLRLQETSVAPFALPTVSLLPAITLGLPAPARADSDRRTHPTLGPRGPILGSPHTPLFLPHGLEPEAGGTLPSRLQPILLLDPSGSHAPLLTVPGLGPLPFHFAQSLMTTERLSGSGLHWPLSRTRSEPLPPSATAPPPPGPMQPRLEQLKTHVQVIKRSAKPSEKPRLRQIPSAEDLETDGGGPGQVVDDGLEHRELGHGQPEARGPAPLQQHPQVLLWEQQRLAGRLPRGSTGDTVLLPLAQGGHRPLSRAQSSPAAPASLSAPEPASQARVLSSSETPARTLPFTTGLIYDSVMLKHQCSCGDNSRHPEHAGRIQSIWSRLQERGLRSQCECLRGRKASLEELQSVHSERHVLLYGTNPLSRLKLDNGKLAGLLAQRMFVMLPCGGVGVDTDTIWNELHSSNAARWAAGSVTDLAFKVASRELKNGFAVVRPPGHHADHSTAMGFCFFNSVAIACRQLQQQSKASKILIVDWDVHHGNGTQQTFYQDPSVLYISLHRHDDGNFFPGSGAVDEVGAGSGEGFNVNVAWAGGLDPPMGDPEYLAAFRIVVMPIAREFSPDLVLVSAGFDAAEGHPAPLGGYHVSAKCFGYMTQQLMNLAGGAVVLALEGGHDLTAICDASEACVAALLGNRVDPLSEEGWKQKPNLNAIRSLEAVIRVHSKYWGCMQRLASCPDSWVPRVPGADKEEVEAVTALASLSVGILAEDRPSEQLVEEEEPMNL
# [11] = target: Histone deacetylase 3 (Homo sapiens, UniProt O15379); assay: Inhibition of human recombinant HDAC3 using fluorogenic HDAC substrate-3 by fluorescence assay
# Histone deacetylase 3, sequence (O15379 whole entry): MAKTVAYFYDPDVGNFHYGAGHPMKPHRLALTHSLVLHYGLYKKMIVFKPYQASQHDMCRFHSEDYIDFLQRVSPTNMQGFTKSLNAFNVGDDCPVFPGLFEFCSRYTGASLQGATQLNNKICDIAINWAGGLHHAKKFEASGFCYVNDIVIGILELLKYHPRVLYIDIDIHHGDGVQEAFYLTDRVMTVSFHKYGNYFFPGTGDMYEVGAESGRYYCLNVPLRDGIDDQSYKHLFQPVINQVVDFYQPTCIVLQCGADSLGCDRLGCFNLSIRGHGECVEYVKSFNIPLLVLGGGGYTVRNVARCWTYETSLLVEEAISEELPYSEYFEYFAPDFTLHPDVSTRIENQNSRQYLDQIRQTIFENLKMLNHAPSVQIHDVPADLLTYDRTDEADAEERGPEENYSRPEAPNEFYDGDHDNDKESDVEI
# [12] = target: T6, Protein deacetylase HDAC6 (Homo sapiens, UniProt Q9UBN7); assay: Inhibition of human recombinant HDAC6 using fluorogenic HDAC substrate-3 by fluorescence assay
# T6 sequence (Q9UBN7 whole entry): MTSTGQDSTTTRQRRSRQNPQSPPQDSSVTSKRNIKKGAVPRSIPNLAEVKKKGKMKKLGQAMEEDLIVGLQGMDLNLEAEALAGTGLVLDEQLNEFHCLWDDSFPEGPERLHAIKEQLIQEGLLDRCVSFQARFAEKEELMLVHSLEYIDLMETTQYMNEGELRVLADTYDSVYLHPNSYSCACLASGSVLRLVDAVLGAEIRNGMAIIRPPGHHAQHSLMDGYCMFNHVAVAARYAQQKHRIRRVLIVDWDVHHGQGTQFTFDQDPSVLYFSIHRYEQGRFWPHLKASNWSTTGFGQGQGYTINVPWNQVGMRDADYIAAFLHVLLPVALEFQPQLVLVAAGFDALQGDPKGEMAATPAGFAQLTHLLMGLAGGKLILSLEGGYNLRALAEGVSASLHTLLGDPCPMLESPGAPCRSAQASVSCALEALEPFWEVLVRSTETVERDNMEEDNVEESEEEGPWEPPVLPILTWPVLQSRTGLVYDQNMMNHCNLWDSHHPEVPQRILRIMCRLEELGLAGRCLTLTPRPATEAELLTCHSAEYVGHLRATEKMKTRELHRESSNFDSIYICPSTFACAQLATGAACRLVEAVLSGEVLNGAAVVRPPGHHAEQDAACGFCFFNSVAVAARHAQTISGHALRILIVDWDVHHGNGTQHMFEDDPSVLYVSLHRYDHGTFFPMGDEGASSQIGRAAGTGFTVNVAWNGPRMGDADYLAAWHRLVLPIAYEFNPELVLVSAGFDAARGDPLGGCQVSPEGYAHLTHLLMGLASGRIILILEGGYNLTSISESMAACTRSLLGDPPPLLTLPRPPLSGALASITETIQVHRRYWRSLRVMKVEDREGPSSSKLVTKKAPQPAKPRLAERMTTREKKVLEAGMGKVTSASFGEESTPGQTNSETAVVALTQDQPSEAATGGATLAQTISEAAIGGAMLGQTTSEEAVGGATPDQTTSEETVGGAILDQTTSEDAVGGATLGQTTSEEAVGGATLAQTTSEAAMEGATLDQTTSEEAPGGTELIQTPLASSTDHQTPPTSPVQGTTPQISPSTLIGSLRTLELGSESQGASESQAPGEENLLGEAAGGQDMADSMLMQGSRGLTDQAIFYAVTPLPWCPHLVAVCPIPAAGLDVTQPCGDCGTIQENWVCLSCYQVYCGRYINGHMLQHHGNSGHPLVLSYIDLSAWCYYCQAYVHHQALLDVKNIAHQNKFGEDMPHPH
# [13] = target: T7, Protein deacetylase HDAC6 (Homo sapiens) (UniProt Q9UBN7); assay: Inhibition of HDAC6 in human SH-SY5Y cells assessed as increase in alpha-tubulin acetylation after 24 hrs by Western blot analysis; format: cell-based
# T7 sequence (whole entry): T6 sequence (Q9UBN7 whole entry)
# [14] = target: T7, Protein deacetylase HDAC6 (Homo sapiens); assay: Inhibition of HDAC6 in human SH-SY5Y cells assessed as increase in alpha-tubulin acetylation at 0.5 uM after 24 hrs by Western blot analysis; format: cell-based
# [15] = target: T7, Protein deacetylase HDAC6 (Homo sapiens); assay: Inhibition of HDAC6 in human H1975 cells assessed as microtubule polymerization up to 10 uM after 24 hrs by Hoechst staining-based fluorescence microscopic analysis; format: cell-based
# [16] = target: T3, Histone deacetylase 1; assay: Inhibition of HDAC1 in human SH-SY5Y cells assessed as increase in histone H3 acetylation up to 20 uM after 24 hrs by Western blot analysis; format: cell-based
# [17] = target: T7, Protein deacetylase HDAC6 (Homo sapiens); assay: Inhibition of HDAC6 in human H1975 cells assessed as alpha-tubulin acetylation up to 10 uM after 24 hrs by Hoechst staining-based fluorescence microscopic analysis; format: cell-based
# Histone deacetylase 4, sequence (P56524 whole entry): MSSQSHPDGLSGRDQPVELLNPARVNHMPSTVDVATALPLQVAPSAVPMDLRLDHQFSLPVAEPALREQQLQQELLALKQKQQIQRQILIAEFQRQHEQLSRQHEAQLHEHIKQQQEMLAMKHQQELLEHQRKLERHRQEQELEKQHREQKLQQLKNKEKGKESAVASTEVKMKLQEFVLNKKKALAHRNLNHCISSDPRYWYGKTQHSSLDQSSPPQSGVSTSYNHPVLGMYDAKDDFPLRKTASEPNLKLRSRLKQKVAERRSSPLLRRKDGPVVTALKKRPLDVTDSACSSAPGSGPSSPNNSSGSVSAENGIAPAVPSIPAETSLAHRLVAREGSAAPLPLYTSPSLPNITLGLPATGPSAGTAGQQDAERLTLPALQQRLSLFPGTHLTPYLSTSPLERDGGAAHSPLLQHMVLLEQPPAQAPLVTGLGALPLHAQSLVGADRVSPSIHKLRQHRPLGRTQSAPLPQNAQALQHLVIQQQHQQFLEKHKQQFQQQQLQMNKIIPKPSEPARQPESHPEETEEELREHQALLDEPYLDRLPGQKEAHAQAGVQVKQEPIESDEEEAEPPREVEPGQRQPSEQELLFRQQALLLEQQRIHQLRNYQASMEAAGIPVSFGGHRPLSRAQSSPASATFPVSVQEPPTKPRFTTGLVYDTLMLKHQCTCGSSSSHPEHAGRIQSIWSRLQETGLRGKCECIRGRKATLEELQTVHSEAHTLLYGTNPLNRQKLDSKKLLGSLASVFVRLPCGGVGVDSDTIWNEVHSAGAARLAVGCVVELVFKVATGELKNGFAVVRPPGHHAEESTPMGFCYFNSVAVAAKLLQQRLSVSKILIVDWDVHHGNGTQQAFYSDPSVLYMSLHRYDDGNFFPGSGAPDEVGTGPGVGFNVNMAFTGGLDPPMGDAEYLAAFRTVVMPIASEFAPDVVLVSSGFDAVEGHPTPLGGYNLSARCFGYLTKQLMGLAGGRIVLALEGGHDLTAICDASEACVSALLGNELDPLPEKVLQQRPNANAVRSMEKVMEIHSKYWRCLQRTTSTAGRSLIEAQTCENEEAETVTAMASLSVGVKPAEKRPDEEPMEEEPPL
IC50 [1],IC50 [2],IC50 [3],IC50 [4],IC50 [5],IC50 [6],IC50 [8],IC50 [9],IC50 [10],IC50 [11],IC50 [12],inhibition [13],inhibition [14],inhibition [15],inhibition [16],inhibition [17],Compound,Activity [7],GI50 [7]
16.2 µM,1.47 µM,> 100 µM,> 100 µM,3.07 µM,13.6 µM,8.59 µM,> 100 µM,> 100 µM,1.97 µM,0.536 µM,,,,,,O=C(/C=C/c1ccc2c(c1)C(=O)c1ccccc1C2=O)NO,Dose-dependent effect,22.3 µM
5.61 µM,5 µM,7.78 µM,0.599 µM,0.91 µM,4.62 µM,1.36 µM,80 µM,,3.95 µM,0.056 µM,Dose-dependent effect,Active,Active,inactive,Active,O=C(NO)c1ccc2c(c1)C(=O)c1ccccc1C2=O,Dose-dependent effect,15.8 µM
